From patent publication US11655254B2, “Substituted piperazines as BTK inhibitors” (HUTCHISON MEDIPHARMA LIMITED, priority 2020, dated 2023)

Key:
[1] = Drug concentration in plasma of mice of the B cell activation study; assay type: in vivo; conditions: C57BL/6, plasma; mouse, 20 mg/kg oral, 16 h after administration
Description: The animals of each group were administered, then were placed in CO2 for anesthesia at designated time points, blood samples were taken from […] via retro-orbital bleeding, and heparin was used for anticoagulation; 90 μL of whole blood was taken from mice of each group, and added to a 96 well culture plate, and anti-mouse IgD antibody (BIO-RAD, Cat #MCA4693) was added to each well to a final concentration of 0.01 μg/μL (respectively for each drug-treated group and anti-IgD antibody-inducted vehicle group); in addition, 90 μL of whole blood of mice in the vehicle group was taken and added to the 96-well culture plate, and PBS (phosphate buffer, GIBCO, Cat # C20012500BT) was added to each well to a final concentration of 0.01 μg/μL (namely, the vehicle control group); Each group was mixed well and incubated in a 37° C./5% CO2 incubator for 4 hours. In addition, the blood of mice in the drug-treated group was centrifuged to separate plasma for blood concentration analysis.

[2] = tested on: B cell activation in mice whole blood (BTK target); assay: In vivo inhibitory effect on BTK target: anti-IgD antibody-induced B cell activation in mice whole blood after oral dosing; design: species or system mouse; conditions: 20 mg/kg oral gavage, single administration, 16 h
Text: Objects: B cells in mice whole blood were induced and activated by the anti-IgD antibody, and the inhibitory effect of the compound of the present invention on B cell activation in vivo was studied, so as to determine the inhibitory effect of the compound of the present invention on the BTK target in vivo.
Methods: C57BL/6 mice (female, 18-20 g, purchased from Shanghai Lingchang Biotechnology Co., Ltd.) were grouped according to Table 1.
In addition, the blood of mice in the drug-treated group was centrifuged to separate plasma for blood concentration analysis.
Calculation for Inhibition Ratio: Inhibition ratio=(percentage of B cell activation ratio in anti-IgD antibody-induced vehicle group-percentage of B cell activation ratio in drug-treated group)/(percentage of B cell activation ratio in anti-IgD antibody-induced vehicle group-percentage of B cell activation ratio in vehicle control group)×100%
All data are represented by mean±standard error. For the comparison between each drug-treated group and the anti-IgD antibody-induced vehicle group, p value was calculated by Graphpad Prism using one-way ANOVA analysis of variance and Dunnett's test, and for the comparison between each drug-treated group, p value was calculated by using unpaired t test.

[3] = target: Phosphorylated BTK in Ramos cells (Homo sapiens (Human), UniProt Q06187); assay: Determination of phosphorylated BTK in Ramos cells (BTK phospho-Y223 HTRF); assay type: cell-based; conditions: Ramos cells stimulated with immunoglobulin M 10 μg/mL and hydrogen peroxide 3.3 mM, 10 minutes
Description: Ramos cells were starved in PRMI 1640 medium with 1% FBS for 2 hours. The starved Ramos cells were diluted with Hank's balanced salt solution to 5.0×10^6 cells/ml, seeded in a 96-well plate with 20 μL/well (1.0×10^5 cells/well), and cultured in a 5% CO2, 37° C. cell incubator. […]
The 384 well plate incubated overnight in the constant temperature incubator was taken out to detect the luminescence signal using the Envision microwell plate reader at the […]. The reading value at 665 nm/615 nm of each well multiplied by 10^4 was used as the signal value of each well.
The average signal value of the wells supplemented with the mixed solution of human immunoglobulin M (final concentration was 10 μg/mL) and hydrogen peroxide (final concentration was 3.3 mM) without the test compound was regarded as the high value, and the average signal value of the wells without immunoglobulin M stimulation and without the test compound was regarded as the low value. According to the signal value in each well, the inhibition ratio (%) of each concentration of compounds was calculated, and the 205 model in XL-Fit 5.3 software (ID Business Solutions Limited) was used to obtain an IC50 value.
The inhibition ratio is calculated as follows: inhibition ratio (%)=100%−{(treating well for the test compound−negative control treating well)/(control treating well for anti-human immunoglobulin M−negative control treating well)}×100%, wherein, […]

[4] = Stability test in liver microsomes (rat); assay type: in vitro ADME; conditions: rat liver microsomes 0.5 mg/mL, compound 1 μM, 37° C.
Description: The test compound stock solution was diluted with an organic solvent (usually a mixture of acetonitrile, methanol and water with various ratios, depending on the solubility of the compound, if necessary, 1 N hydrochloric acid or 1 N sodium hydroxide would be added to facilitate solubilization) to the 0.1 mM (the final concentration of the compound in the reaction system was 1 μM) and the concentration percentage of the organic solvents in the incubation system no more than 1% (wherein the percentage of DMSO was required to be no more than 0.1%). An appropriate amount of 100 mM NADP, 500 mM G-6-P and 100 Unit/mL G-6-PDH were mixed and diluted with ultrapure water (the final system contains 1 mM NADP, 5 mM G-6-P and 1 Unit/mL G-6-PDH), pre-incubated in a 37° C. water bath for 10 minutes and then placed on ice for use as a NADPH regeneration solution. 20 mg/mL liver microsomes solution and 200 mM phosphate buffer were mixed, and diluted with ultrapure water to give a liver microsomes solution containing 2.5 mg/mL liver microsomes (the final concentration of the reaction system is 0.5 mg/mL) and 50 mM phosphate buffer. […]
The percentage of the remaining compound after 30 minutes of incubation comparing with that in the 0-minute sample was calculated using the peak area ratio of the compound to the internal standard as an indicator, to evaluate the metabolic stability of the compound.

[5] = tested on: CIA (collagen induced arthritis) rats; assay: Rat arthritis model induced by type II collagen (CIA); assay type: in vivo; conditions: compared with vehicle control group
Description: An appropriate amount of bovine type II collagen (CII, Chondrex (Redmond, Wash., USA), Cat #20021) was weighed and dissolved in 0.1 mole of acetic acid (SPGC Sinopharm Chemical Reagent Co., Ltd (Shanghai, P.R. China), Cat #: 10000218.), which was formulated into a solution with a concentration of 6 mg/mL, stirred at 4° C. overnight, and added with an equal volume of Freund's incomplete adjuvant (Sigma-Aldrich.(St. Louis, Mo., USA), Cat #: SLBW0366.), fully emulsified to prepare an emulsion with a CII concentration of 3 mg/mL.
Female Lewis rats were purchased from Beijing Vital River Laboratory Animal Technology Co., Ltd. (certificate number 20200928Aazz0619000579, initial body weight of 110-130 grams), and 6 rats were randomly selected as a normal group; and all of the remaining rats were immunized. In the first immunization on day 0, the rats except those in the normal group were anesthetized with isoflurane (Hebei Yipin Pharmaceutical Co., Ltd., Lot: C002170601.), and then disinfected with 75% alcohol, and 0.2 mL of emulsion was injected intradermally at the base of the tail thereof. A second challenge was carried out on day 7, and 0.2 mL of emulsion was intradermally injected using the same method. Once the animals developed symptoms on day 10, the incidence conditions thereof were closely monitored.
After grouping, the normal group was not administered, and the rats in the other groups were administered with the control vehicle, 0.25 mg/kg and 4 mg/kg of the reference GDC-0853, and each dose of compound 1 orally once a day until the end of the experiment.
The paw volume was measured on day 10 after immunization, and the left and right hind paw volumes (V) were measured every day after the paw volume increase was detected.
The arthrosis paw volumes of the left and right hind limbs of each animal were measured, and the average paw volume (APV) was calculated according to the following formula: Average paw volume APV=(Vleft+Vright)/2
The average arthrosis paw volume of each animal before administration was used as the baseline (or considered 100% inhibition of inflammation). […]
The area under the curve (AUC) of the average paw volume swelling is the area under the curve of the arthrosis score swelling calculated by the trapezoid method, and the calculation formula is: AUCAPS=1/2×(APSd1+APSd2)×(d2−d1)+1/2×(APSd2+APSd3)×(d3−d2)+ . . . +1/2×(APSdn+APSd(n-1))×(dn−dn-1). […]
ED50 is calculated by XLfit software according to the AUC inhibition ratio of the area under the curve of the average paw volume swelling. […]

Sequence of Phosphorylated BTK in Ramos cells (Q06187 whole entry): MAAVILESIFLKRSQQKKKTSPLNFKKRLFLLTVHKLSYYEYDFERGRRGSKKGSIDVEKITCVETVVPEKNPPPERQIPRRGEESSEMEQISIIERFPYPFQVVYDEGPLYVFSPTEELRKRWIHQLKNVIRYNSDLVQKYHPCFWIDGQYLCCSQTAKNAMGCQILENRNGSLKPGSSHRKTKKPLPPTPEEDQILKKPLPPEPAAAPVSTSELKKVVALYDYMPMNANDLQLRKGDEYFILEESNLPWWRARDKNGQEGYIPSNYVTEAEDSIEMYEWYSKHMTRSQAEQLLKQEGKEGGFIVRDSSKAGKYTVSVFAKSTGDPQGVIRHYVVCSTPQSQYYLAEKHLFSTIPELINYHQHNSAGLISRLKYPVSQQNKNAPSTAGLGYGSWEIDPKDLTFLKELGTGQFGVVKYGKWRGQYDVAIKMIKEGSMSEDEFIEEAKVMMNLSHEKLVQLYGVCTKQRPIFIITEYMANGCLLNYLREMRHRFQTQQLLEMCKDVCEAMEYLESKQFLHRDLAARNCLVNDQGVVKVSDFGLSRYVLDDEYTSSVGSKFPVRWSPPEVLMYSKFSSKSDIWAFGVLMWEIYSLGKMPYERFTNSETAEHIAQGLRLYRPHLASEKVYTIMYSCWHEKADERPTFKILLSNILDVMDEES

Row | RLM, percentage of the remaining compound after 30 minutes of incubation [4] [%] | SMILES | concentration at 16 h [1] [ng/mL] | Inhibition ratio (%) on B cell activation [2] [%] | Inhibition ratio (%) on B cell activation ([2]; listed as compound 2) [%] | IC50 [3] [nM] | effect on paw volume ([5]; 0.25 mg/kg oral QD) | effect on paw volume ([5]; 4 mg/kg oral QD)
1 |  | C[C@@H]1CN(C2COC2)C[C@H](C)N1c1ccc(Nc2cc(-c3ccnc(-n4ccn5c6c(cc5c4=O)CC(C)(C)C6)c3CO)cn(C)c2=O)nc1 [Compound 2] | 6.6 ± 2.51 | 43 | 43 | 6 |  | 
2 |  | C[C@H]1CN(C2COC2)C[C@H](C)N1c1ccc(Nc2cc(-c3ccnc(-n4ncn5c6c(cc5c4=O)CC(C)(C)C6)c3CO)cn(C)c2=O)nc1 [Compound 4, 2-(5-((5-((2S,6S)-2,6-dimethyl-4-(oxetan-3-yl)piperazin-1-yl)pyridin-2-yl)amino)-3′-(hydroxymethyl)-1-methyl-6-oxo-1,6-dihydro-[3,4′-bipyridin]-2′-yl)-7,7-dimethyl-7,8-dihydro-2H-cyclopenta[4,5]pyrrolo[1,2-d][1,2,4]triazin-1(6H)-one] |  |  |  | 3 |  | 
3 | 81.0 | C[C@H]1CN(C2COC2)CCN1c1ccc(Nc2cc(-c3ccnc(N4CCn5c(cc6c5CC(C)(C)C6)C4=O)c3CO)cn(C)c2=O)nc1 [GDC-0853, fenebrutinib, reference compound] | 5.01 ± 2.26 |  |  |  | no improvement effect | significantly reduced
